The values below come from patent US20060079453A1, “Hla binding peptides and their uses” (priority 2002, published 2006).

Values joined by “and” are separate entries in the source; they are usually repeats but may differ in a detail not shown here. Equal values may be shown once. Read-outs that look alike come from different tables or passages of the source. No end group written: not given here.

What all share (test): biochemical
One experiment concerns the target H-2 Db (Mus musculus, UniProt P01899). The class given is binding, murine.
A further experiment addresses HLA-DR DRB5*0101 (DR51) (Homo sapiens, UniProt P01903+Q30154). The class given is binding.
The target in the next experiment is HLA-DR DRB1*1101 (DR11) (Homo sapiens, UniProt P01903+P01911, A100R/A169T/A87E/I96F/K41T/L162R/M171V/P40S/Q125H/Q178H/Q39Y/Q99D/R42S/S66Y/T262R/V115G/W38E). The class given is binding.
Experiment [1] deals with HLA-DQ DQA1*0301/B*0301 (DQ7) (Homo sapiens, UniProt P01909+P01920, A209T/C70Q/DUP78-78/E183D/F237L/G63E/I129T/K197E/L178F/L74F/L98V/Q57E/Q76R/S185I/S97I/T49S/V73L). The class given is binding.
A further experiment concerns the target HLA-DR DRB1*0401 (DR4) (Homo sapiens, UniProt P01903+P01911, A100K/A169T/F76Y/I96L/K127E/L162R/M171V/N62H/P40V/Q125Y/R42H/S133A/S149N/S66Y/V115G/V209L/W38E). The format is binding. The following applies: DRB1 *0401.
A further experiment concerns the target HLA-DR DRB1*0701 (DR7) (Homo sapiens, UniProt P01903+P01911, A100R/A102G/A103Q/D57E/D86V/E43K/F76Y/K127E/L162R/M171V/P40G/Q125H/Q99D/R33Q/R42Y/R54Q/S133A/S66F/T210M/V115G/Y107V/Y59L/Y89S). The class given is binding.
A further experiment deals with H-2Dd (Mus musculus, UniProt P01900). The class given is binding, murine.
A further experiment has as its target HLA-B*0702 (Homo sapiens, UniProt P01889). The class given is binding.
A further experiment addresses HLA-DR DRB4*0101 (DR53) (Homo sapiens, UniProt P01903+P13762, G164S). The format is binding.
The target in a further experiment is HLA-DR DRB3*0101 (DR52) (Homo sapiens, UniProt P01903+P79483). The class given is binding.
For another experiment, the target named is HLA-DR DRB1*1501 (DR15) (Homo sapiens, UniProt P01903+P01911). The class given is binding.
The next experiment addresses HLA-DR DRB1*0405 (DR4) (Homo sapiens, UniProt P01903+P01911, A100R/A169T/D86S/F76Y/I96L/K127E/L162R/M171V/N62H/P40V/Q125Y/R42H/S133A/S149N/S66Y/V115G/V209L/W38E). The class given is binding. The following applies: DRB1 *0405.
Another experiment addresses HLA-DR DRB1*0301 (DR3) (Homo sapiens, UniProt P01903+P01911, A100K/A102G/A103R/A169T/F55Y/I96L/K41T/L162R/M171V/P40S/Q125H/Q178H/Q39Y/R42S/S66N/T106N/T262R/W38E/Y61H). The class given is binding.
A further experiment deals with HLA-DR DRB1*0901 (DR9) (Homo sapiens, UniProt P01903+P01911, A100R/A103E/D57H/D86V/F55Y/F60I/F76Y/I96F/K127E/L162R/M171V/P40D/Q125H/Q99R/R33Q/R42F/S133A/S66N/T210M/V115G/W38K/Y107V/Y59G/Y89S). The class given is binding. The following applies: DRB1 *0901.
For a further experiment, the target named is HLA-DR DRB1*0802 (DR8) (Homo sapiens, UniProt P01903+P01911, A100R/A103L/A169T/F76Y/H45Y/I96F/K41T/L162R/M171V/P40S/Q125H/Q178H/Q39Y/Q99D/R218S/R42G/S66Y/V115G/W38E). The format is binding.
The next experiment addresses HLA-DR DRB1*1302 (DR13) (Homo sapiens, UniProt P01903+P01911, A100E/A169T/K41T/L162R/M171V/P40S/Q125H/Q178H/Q39Y/Q99D/R42S/S66N/T262R/V115G/W38E/Y61H). The class given is binding. Conditions: read-out: DRBI *1302.

H-2 Db, sequence (P61769 21-119): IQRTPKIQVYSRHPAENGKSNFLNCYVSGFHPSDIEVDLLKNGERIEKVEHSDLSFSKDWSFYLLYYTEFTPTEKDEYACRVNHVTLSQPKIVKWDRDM
H-2 Db, sequence (P01899 25-362): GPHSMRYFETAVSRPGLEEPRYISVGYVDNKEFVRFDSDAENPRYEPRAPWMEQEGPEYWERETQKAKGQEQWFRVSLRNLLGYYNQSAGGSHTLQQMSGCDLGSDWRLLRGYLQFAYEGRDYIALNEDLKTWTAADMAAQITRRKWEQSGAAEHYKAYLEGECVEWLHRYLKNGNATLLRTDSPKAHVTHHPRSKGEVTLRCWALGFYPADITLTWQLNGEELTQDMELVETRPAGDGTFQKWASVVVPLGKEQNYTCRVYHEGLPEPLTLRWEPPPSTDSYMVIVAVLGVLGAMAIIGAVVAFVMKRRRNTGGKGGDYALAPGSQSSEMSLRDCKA
H-2Dd, sequence (P01900 25-365): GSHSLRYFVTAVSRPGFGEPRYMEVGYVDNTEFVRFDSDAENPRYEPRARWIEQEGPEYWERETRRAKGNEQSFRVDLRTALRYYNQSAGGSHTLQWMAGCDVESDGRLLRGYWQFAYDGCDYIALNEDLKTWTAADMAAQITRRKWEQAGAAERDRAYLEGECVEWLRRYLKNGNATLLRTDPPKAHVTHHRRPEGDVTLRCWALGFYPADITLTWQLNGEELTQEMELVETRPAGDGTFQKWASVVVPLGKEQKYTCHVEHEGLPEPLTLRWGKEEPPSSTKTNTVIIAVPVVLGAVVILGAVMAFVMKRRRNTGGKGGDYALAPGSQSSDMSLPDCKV
H-2Dd, sequence (P61769 21-119, further chain): as the sequence (P61769 21-119) above
HLA-DR DRB1*1101 (DR11), sequence (P01903 26-254 limits assumed, other chains not shown): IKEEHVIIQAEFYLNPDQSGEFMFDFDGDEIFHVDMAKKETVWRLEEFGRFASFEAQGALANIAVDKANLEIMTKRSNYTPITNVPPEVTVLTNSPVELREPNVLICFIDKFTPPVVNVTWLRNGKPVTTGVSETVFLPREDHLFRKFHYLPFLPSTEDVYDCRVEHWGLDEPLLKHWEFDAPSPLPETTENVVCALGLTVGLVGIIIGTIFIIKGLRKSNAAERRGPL
HLA-DR DRB1*0301 (DR3), sequence (P01903 26-254 limits assumed, other chains not shown): as above
HLA-DR DRB1*1302 (DR13), sequence (P01903 26-254 limits assumed, other chains not shown): as above

TALANTIEY: on H-2 Db (read-out: Db), the IC50 worked out at 3.7 nM.

GMRQNATEI: on H-2 Db (Db), the IC50 was 81 nM.

The compound YMRVNGKWM displayed an IC50 against H-2 Db (Db) of 50 nM. On H-2 Db (Db), FAPGYNPAL [FAPGYNPAL] showed an IC50 of 2 nM. For SFYRNLLWL, at H-2 Db (Db), the IC50 is 46 nM and 304 nM. Still for that read-out and setting: under AAAANAAAM stands 23 nM. Regarding AHAAHAAHAAHAAHAA, the IC50 at HLA-DR DRB5*0101 (DR51) (DRB5 *0101) is no less than 200000 nM; on HLA-DR DRB1*1101 (DR11) (DRB1 *1101), no less than 200000 nM; in [1], 58 nM; against HLA-DR DRB1*0401 (DR4), 80000 nM; at HLA-DR DRB1*0701 (DR7) (DRB1 *0701) it was greater than 250000 nM. At H-2Dd, RGPYRAFKTI registered an IC50 of 2.3 nM. At HLA-B*0702 (B*0702 binding affinity (IC50)), RPRFGPGPGEF gave an IC50 of 14 nM. As for SDSNYYDLLKDLEEG, in experiment [1] (read-out: DQB1*0301), the IC50 was greater than 89300 nM. As for XVXDNATEY, the IC50 at HLA-B*0702 (read-out: B*0702 binding affinity (IC50)) is greater than 55000 nM. RNPRFYNL gave an IC50 on H-2 Db (Db) greater than 44000 nM.

Take YAAFAAAKTAAAFA: the IC50 on HLA-DR DRB5*0101 (DR51) (read-out: DRB5 *0101) was 9.5 nM; on HLA-DR DRB1*1101 (DR11) (read-out: DRB1 *1101), 2.6 nM; in experiment [1] (read-out: DQB1*0301) it was 36 nM and 39 nM; at HLA-DR DRB4*0101 (DR53) (read-out: DRB4 *0101) it was 30 nM; at HLA-DR DRB3*0101 (DR52) (read-out: DRB3 *0101), 33300 nM; on HLA-DR DRB1*1501 (DR15) (read-out: DRBI *1501) it was greater than 4350 nM. On HLA-DR DRB1*0701 (DR7) (read-out: DRB1 *0701), the IC50 came to 34 nM.

As for CMANNSHHYI, the IC50 at H-2 Db (Db) is 220 nM.

For the compound RGPGRYFVTI, the IC50 against H-2Dd came out at 2.7 nM. On to IDVWLGDLAENFLPY, for which, in experiment [1], the IC50 is greater than 44600 nM. In the case of DDVWLGGLAEKFLPY, the IC50 in experiment [1] (read-out: DQB1*0301) amounted to 241 nM. On H-2 Db (Db), KVPRNQDWL returned an IC50 of 38 nM. RGPYKAFVTI came in with an IC50 at H-2Dd of 13 nM. The compound RGPYRKFVTI gave an IC50 against H-2Dd of 3.6 nM. In turn, SGVENPGGYCL registered an IC50 against H-2 Db (Db) of 60 nM. On to SSMHNALHI, for which, on H-2 Db (Db), the IC50 came to 7.6 nM. In the case of (44)YAAAAAAKAAA, in experiment [1] (read-out: DQB1*0301), the IC50 was 26 nM.

On H-2 Db (Db), SHYAFSPM had an IC50 greater than 88000 nM.

APAAGPGPGPA showed an IC50 at HLA-B*0702 (B*0702 binding affinity (IC50)) of 173 nM. As for STGWNRTIVENLLAN, in experiment [1] (read-out: DQB1*0301), the IC50 is 47100 nM. Still for that read-out and setting: under IDWDLGGLAENFLPY stands 218 nM.

Compound KQYLNLYPV gave an IC50 at H-2 Db (Db) of 3.4 nM. In the case of KAVYNFATCGI, the IC50 against H-2 Db (Db) came out at 29 nM. On HLA-B*0702 (B*0702 binding affinity (IC50)), RPRGPGPGV had an IC50 of 11 nM. `CC[C@H](C)[C@H](NC(=O)[C@@H](N)CCCCN)C(=O)N[C@@H](Cc1ccccc1)C(=O)NCC(=O)N[C@@H](CO)C(=O)N[C@@H](CC(C)C)C(=O)N[C@@H](C)C(=O)N[C@@H](Cc1ccccc1)C(=O)N[C@@H](CC(C)C)C(=O)N1CCC[C@H]1C(=O)N[C@@H](CCC(=O)O)C(=O)N[C@@H](CO)C(=O)N[C@@H](Cc1ccccc1)C(=O)N[C@@H](CC(=O)O)C(=O)NCC(=O)N[C@@H](CC(=O)O)C(=O)N1CCC[C@H]1C(=O)N[C@@H](C)C(=O)O`: the IC50 on HLA-DR DRB1*0405 (DR4) is 37 nM; on HLA-DR DRB1*0301 (DR3), 74200 nM; against HLA-DR DRB5*0101 (DR51) (DRB5 *0101), 8010 nM; at HLA-DR DRB1*1101 (DR11) (DRB1 *1101) it was greater than 52600 nM; in [1] it was 320 nM; on HLA-DR DRB4*0101 (DR53) (DRB4 *0101), 10000 nM. The IC50 against HLA-DR DRB1*0401 (DR4) is 1200 nM; against HLA-DR DRB1*0901 (DR9), 15800 nM; on HLA-DR DRB3*0101 (DR52) it was 43700 nM; against HLA-DR DRB1*1501 (DR15) (DRBI *1501), 2260 nM; on HLA-DR DRB1*0701 (DR7) (DRB1 *0701) it was 377 nM; against HLA-DR DRB1*0802 (DR8), greater than 75400 nM. With `CC[C@H](C)[C@H](NC(=O)[C@@H](NC(=O)[C@@H](NC(=O)[C@H](Cc1ccccc1)NC(=O)[C@H](C)NC(=O)[C@H](CCCNC(=N)N)NC(=O)CNC(=O)[C@@H]1CCCN1C(=O)CNC(=O)[C@@H](N)CCCNC(=N)N)C(C)C)[C@@H](C)O)C(=O)O`, at H-2 Db (Db), the IC50 was 22000 nM. In the case of QLQQFQKEDAAVTIY, the IC50 at HLA-DR DRB5*0101 (DR51) (read-out: DRB5 *0101) is 4270 nM; on HLA-DR DRB1*1101 (DR11) (read-out: DRB1 *1101), greater than 408000 nM; in [1] (read-out: DQB1*0301), 26200 nM; on HLA-DR DRB4*0101 (DR53) (read-out: DRB4 *0101), 1340 nM; at HLA-DR DRB1*1302 (DR13) it was 68 nM; at HLA-DR DRB1*1501 (DR15) (read-out: DRBI *1501), 1720 nM. In turn, IDVWLGGLDENFLPY had an IC50 in [1] greater than 19200 nM.

At H-2 Db (Db), `CC[C@H](C)[C@H](NC(=O)[C@H](CCC(=O)O)NC(=O)[C@@H]1CCCN1C(=O)[C@@H]1CCCN1C(=O)[C@@H](NC(=O)[C@H](CC(N)=O)NC(=O)[C@H](CO)NC(=O)[C@@H]1CCCN1C(=O)CNC(=O)[C@@H](N)CO)[C@@H](C)O)C(=O)O` came in with an IC50 of 8.1 nM.
